# According to patent US10695366B2 (ZS PHARMA, INC., priority 2013, dated 2020):
# Test system: beagles
# Conditions: dog, in vivo
# Protocol: The following 14-day study is designed to show the effect of particle size and particle form on the urinary pH and presence of crystals in the urine. The compounds above are administered to beagles orally by mixing with wet dog food. The regimen is administered 3 times a day at 6 hour intervals over a 12 hour period in the following manner:
# The dose levels were 100 or 600 mg/kg/dose.
substance,measurement,value
microporous zirconium silicate [ZS-9],"test article-related findings (direct or indirect), microscopic",not present
